Reference: US20130029928A1 (priority 2010, published 2013)
Several values for one entry are separate records, joined by “and”; a condition that tells them apart may be missing. Equal entries are not always repeated. Entries after “also recorded” stand apart in the source; their conditions may differ. Where two headings read alike, the source gives them in different places.

Assays:
p21^WAF1 = assay: p21WAF1 transcription reporter (hCG excretion) in A2780/p21WAF1 cells; format: cell-based, human; conditions: 24 hrs exposure; β-hCG excretion
A549 = assay: SRB cytotoxicity assay 48 hr; format: cell-based, human; conditions: read-out: IC50 Values After 48 Hrs Exposure
Procedure: (§3) The SRB assay was performed according to the method specified by the NIC/NIH. […] Assay replicates were independent in time and up to 4 replicates were performed per cell line.

A2780 = assay: SRB cytotoxicity assay 48 hr; format: cell-based, human; conditions: read-out: IC50 Values After 48 Hrs Exposure
Procedure: as §3

OUMS-27 = assay: ATP depletion cytotoxicity assay 48 hr; format: cell-based, human
Procedure: (§4) Following exposure to Test Items, the CellTitre-Glo Luminescent Cell Viability Assay to measure ATP content was performed according to the manufacturer's detailed instructions (Promega Corporation, Technical Bulletin No. 288, and Cell notes, Issue 10, 2004).
(§5) Cells were plated at the optimal plating density for that cell line in 96-well plates and allowed to attach overnight. […] Cells were exposed to these compounds in Roswell Park Memorial Institute (RPMI) medium containing 10% Foetal Calf Serum (FCS) and 2 mM Glutamine at 37° C. and 5% CO2 for 48 hours. There were 3 replicates for each test item concentration.
(§6) Following exposure to Test Items, the CellTitre-Glo Luminescent Cell Viability Assay to measure ATP content will be performed according to the manufacturer's detailed instructions (Promega Corporation, Technical Bulletin No. 288, and Cell notes, Issue 10, 2004).

SW1353 = assay: ATP depletion cytotoxicity assay 48 hr; format: cell-based, human
Procedure: as §4, §5, §6

HPAFII = assay: ATP depletion cytotoxicity assay 48 hr; format: cell-based, human
Procedure: as §4, §5, §6

Capan2 = assay: ATP depletion cytotoxicity assay 48 hr; format: cell-based, human
Procedure: (§7) Assay replicates were independent in time and up to 4 replicates were performed per cell line.
(§8) Cells were plated at the optimal plating density for that cell line in 96-well plates and allowed to attach overnight. The next day, the medium was removed and replaced with fresh medium containing the dose ranges of test items. […] There were 3 replicates for each test item concentration.
as §4
(§9) Cells were plated at the optimal plating density for that cell line in 96-well plates and allowed to attach overnight. The next day, cells were pre-treated with the inhibitors UO126 or LY294002 (see Tables 18 & 20) for 2 hrs, the medium was removed and replaced with fresh medium containing the appropriate dose of the test item. […] Cells were exposed to these compounds in Roswell Park Memorial Institute (RPMI) medium containing 10% Foetal Calf Serum (FCS) and 2 mM Glutamine at 37° C. and 5% CO2 for 48 hours. There were 3 replicates for each test item concentration.
as §6

OV-90 = assay: ATP depletion cytotoxicity assay 48 hr; format: cell-based, human
Procedure: as §7, §8, §4, §9, §6

OVCAR-3 = assay: ATP depletion cytotoxicity assay 48 hr; format: cell-based; conditions: Homo sapiens
Procedure: as §7, §8, §4
Cells were plated at the optimal plating density for that cell line in 96-well plates and allowed to attach overnight. The next day, cells were pre-treated with the inhibitors UO126 or LY294002 (see Tables 18 & 20) for 2 hrs, the medium was removed and replaced with fresh medium containing the appropriate dose of the test item. […] Cells were exposed to these compounds in Roswell Park Memorial Institute (RPMI) medium containing 10% Foetal Calf Serum (FCS) and 2 mM Glutamine at 37° C. and 5% CO2 for 48 hours. There were 3 replicates for each test item concentration. […]

U2OS = assay: ATP depletion cytotoxicity assay 48 hr; format: cell-based; conditions: Homo sapiens, Study CXR0798, read-out: IC50 1
Procedure: as §3

Canine Hepatocytes = assay: ATP depletion cytotoxicity assay 48 hr; format: cell-based; conditions: Canis lupus familiaris, Hepatocyte, Study CXR0798, read-out: IC50 1
Procedure: as §3

[1] = PANC-1 xenograft in female nude mice; format: in vivo, nude mouse; conditions: female, nude, mouse, plasma, 25 mg/kg; PANC-1 model; 24 hrs post last dose; Day 88
Procedure: (§1) A further xenograft model was performed using the human pancreatic cell line PANC-1. This tumour is slow growing in vivo. […] For various reasons, animals were lost during the study and the final group sizes were small. […] This experiment is currently being repeated to try to obtain larger group sizes at experimental completion.
(§2) In-life and terminal blood samples taken from the mice were analysed for CXR1002 levels using a validated analytical method. In-life samples averaged 146 μM and terminal blood samples (24 hours post final dose) averaged 474 μM (FIG. 7). Plasma values were higher than the whole blood values. This may be attributed to the duration of dosing. […] Furthermore, the erythrocyte/plasma partitioning coefficient (which measures the amount of drug bound to red cells compared to plasma binding) may contribute to the observed differences.

[2] = tested on: PANC-1 (pancreas) xenograft tumours; assay: PANC-1 xenograft in female nude mice; format: in vivo, nude mouse
Procedure: as §1, §2

CYP2C9 = CYP2C9 (Homo sapiens, UniProt P11712); assay: Cytochrome P450 isozyme inhibition; format: in vitro ADME; conditions: under the conditions used (unpublished data); read-out: IC50 towards CYP2C9
Text: There is no evidence that APFO is metabolised in mammals once dissociated to form perfluorooctanoate.

[3] = tested on: patients with advanced cancer; assay: Phase I study CXR1002-001: safety and toxicity; format: in vivo, human; conditions: at the doses examined to date
Text: These patients then underwent repeat dosing schedule with the same dose of CXR1002. […] Dose limiting toxicity (DLT) will be based on the toxicity assessments over the first 3-week period of the repeat dosing schedule. PK samples (single blood sample) were taken on the following basis: • Every 6 weeks during the repeat dosing phase • If dosing is interrupted or stopped, samples will be taken at intervals according to patient convenience • PK sampling for safety evaluation may take place at any time, as clinically indicated
In all dose cohorts subsequent to the initial dose cohort, all patients will be treated with weekly administration of study drug from the start of dosing. Dose escalation was performed after all patients at the preceding dose level had completed a 3-week repeat dosing period.

[4] = Phase I study CXR1002-001: urinary excretion; format: in vivo, human; conditions: 24 hour urine post each weekly dose
Water solubility = format: physicochemical
[5] = tested on: Panc-1 (pancreatic tumour) cells; assay: Western blot of ER stress-regulated proteins in Panc-1 cells; format: cell-based, human; conditions: 500 μM, 4 h to 4 days
Procedure: Western blots were performed on the protein extracts (equivalent protein concentrations were loaded onto the gels). The antibodies used were for known ER stress regulated protein Bip/GRP78, CHOP/DDIT3, IRE1alpha, TRB3 (Tribbles3), cleaved PARP (marker of apoptosis), and tubulin (loading control) (see FIG. 71).

Plasma protein binding = format: in vitro ADME
Metabolism = conditions: patients / human
Text: It is presumed that CXR1002 will eventually reach a steady state level after a number of doses, in an analogous way to its accumulative exposure in monkeys.
Unlike most other anti-tumour agents, PFOA is efficiently absorbed following oral exposure.

[6] = tested on: pregnenolone X receptor (PXR); conditions: species-specific basis; Ren (2009); cited from earlier work
H (chondrosarcoma) = assay: ATP depletion cytotoxicity assay 48 hr; conditions: H
Procedure: as §7, §8
Cells were plated at the optimal plating density for that cell line in 96-well plates and allowed to attach overnight. The next day, cells were pre-treated with the inhibitors UO126 or LY294002 (see Tables 18 & 20) for 2 hrs, the medium was removed and replaced with fresh medium containing the appropriate dose of the test item. […] Cells that were to be treated with DPQ received no pre-treatment. […] There were 3 replicates for each test item concentration.

[7] = tested on: panel of tumour cell lines; assay: ATP cytotoxicity assay on the panel of tumour cell lines (CXR1002 alone; test items alone vs combined with CXR1002); conditions: Homo sapiens, read-out: cytotoxicity IC50 to tumour cells (lowest of range)
Procedure: as §3
Cells were plated at the optimal plating density for that cell line in 96-well plates and allowed to attach overnight. The next day, the medium was removed and replaced with fresh medium containing the dose ranges of test items. The cells were exposed to 5-FU, cisplatin, docetaxel, doxorubicin, geldanamycin, gemcitabine, rapamycin or roscovitine in Roswell Park Memorial Institute (RPMI) medium containing 10% Foetal Calf Serum (FCS) and 2 mM Glutamine at 37° C. and 5% CO2 for 48 hours. […] There were 3 replicates for each test item concentration.
as §4

[8] = ATP depletion, 48 hrs, read-out: IC50 1-4 (independent replicates)

Sequence of CYP2C9 (P11712 whole entry): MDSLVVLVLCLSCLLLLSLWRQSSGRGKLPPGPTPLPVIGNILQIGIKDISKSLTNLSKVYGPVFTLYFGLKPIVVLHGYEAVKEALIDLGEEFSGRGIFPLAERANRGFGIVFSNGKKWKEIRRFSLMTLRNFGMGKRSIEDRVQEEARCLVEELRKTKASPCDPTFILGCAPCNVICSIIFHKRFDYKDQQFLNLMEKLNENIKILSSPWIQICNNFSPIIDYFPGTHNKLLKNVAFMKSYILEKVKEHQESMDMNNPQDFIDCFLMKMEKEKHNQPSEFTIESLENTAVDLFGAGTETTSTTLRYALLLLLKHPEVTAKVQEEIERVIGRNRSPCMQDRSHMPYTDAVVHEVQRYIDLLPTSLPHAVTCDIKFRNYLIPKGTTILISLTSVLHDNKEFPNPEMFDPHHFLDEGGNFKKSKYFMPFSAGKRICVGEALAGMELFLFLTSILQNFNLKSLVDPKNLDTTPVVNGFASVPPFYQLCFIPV

O=C(O)C(F)(F)C(F)(F)C(F)(F)C(F)(F)C(F)(F)C(F)(F)C(F)(F)F [CXR1002]
activation of transcription of p21^WAF1 (p21^WAF1): did not activate transcription
IC50 (A549): 230 ± 21.8 µM
IC50 (A2780): 238 ± 7.5 µM
IC50 (OUMS-27; [8]): 800 µM
IC50 (OUMS-27; Homo sapiens, 48 h, ATP depletion, 48 hrs, read-out: IC50 1-4 (independent replicates)): 1000 µM
IC50 (OUMS-27; Homo sapiens, 48 h, ATP depletion, 48 hrs, read-out: IC50 Mean): 900 µM
IC50 (OUMS-27; Homo sapiens, 48 h, Example 7, 48 hour, CXR1002 0-1 mM, U0126 fixed 10 μM where combined, read-out: IC50): 821 µM
IC50 (SW1353; Homo sapiens, SW1353, 48 h, read-out: IC50 1-4 (independent replicates)): > 1 mM
IC50 (SW1353; Homo sapiens, SW1353, 48 h, read-out: IC50 Mean): > 1 mM
IC50 (SW1353; read-out: IC50 1-4 (independent replicates), ATP depletion, 48 hrs, SW1353): > 1 mM
IC50 (HPAFII; Homo sapiens, HPAF-II, 48 h, read-out: IC50 1-4 (independent replicates), ATP depletion, 48 hrs, HPAFII): > 1 mM
IC50 (HPAFII; Homo sapiens, HPAF-II, 48 h, read-out: IC50 Mean, ATP depletion, 48 hrs, HPAFII): > 1 mM
IC50 (HPAFII; read-out: IC50 1-4 (independent replicates), ATP depletion, 48 hrs, HPAFII): > 1 mM and 0.75 mM
IC50 (Capan2; Homo sapiens, Capan-2, 48 h, read-out: IC50 1-4 (independent replicates), ATP depletion, 48 hrs, Capan2): 850 µM
IC50 (Capan2; Homo sapiens, Capan-2, 48 h, read-out: IC50 Mean, ATP depletion, 48 hrs, Capan2): 817 µM
IC50 (Capan2; read-out: IC50 1-4 (independent replicates), ATP depletion, 48 hrs, Capan2): 750 µM
IC50 (OV-90; [8]): 670 µM
IC50 (OV-90; Homo sapiens, OV-90, 48 h, ATP depletion, 48 hrs, read-out: IC50 1-4 (independent replicates)): 650 µM
IC50 (OV-90; Homo sapiens, OV-90, 48 h, ATP depletion, 48 hrs, read-out: IC50 Mean): 657 µM
IC50 (OV-90; Homo sapiens, OV-90, 48 h, Example 7, 48 hour, CXR1002 0-1 mM, U0126 fixed 10 μM where combined, read-out: IC50): 714 µM
IC50 (OVCAR-3; read-out: IC50 1-4 (independent replicates)): 650 µM
IC50 (OVCAR-3; read-out: IC50 Mean): 650 µM
IC50 (U2OS): > 1 mM
IC50 (Canine Hepatocytes): 240 µM
concentration at 24 h [1]: 474 µM
tumour growth ([2]; 25 mg/kg, 3 times per week): substantially delayed tumour growth
Absolute Tumour Volume as a Percentage of Saline Control ([2]; PANC-1, 25 mg/kg 3 times per week, Day 82): 50.13%
Terminal CXR1002 plasma levels ([2]; PANC-1 model, 24 hrs post last dose, Day 88): 474 ± 153 µM
In-life blood CXR1002 level (average) ([2]; PANC-1 model, in-life samples): 146 µM
IC50 (CYP2C9): 760 nM
clinical toxicity [3]: relatively non-toxic
urinary excretion [4]: increases with multiple doses
solubility in water (Water solubility): freely soluble in water; also recorded: highly water soluble
expression of ER stress-regulated proteins [5]: altered expression of ER stress-regulated proteins
plasma protein binding (Plasma protein binding): highly plasma protein bound
metabolism (Metabolism): not metabolised
activation of PXR [6]: are activated
IC50 (H (chondrosarcoma); Example 7, 48 hour, CXR1002 0-1 mM, U0126 fixed 10 μM where combined): 817 µM
IC50 (H (chondrosarcoma); read-out: IC50 1-4 (independent replicates), ATP depletion, 48 hrs): 550 µM and 555 µM and 800 µM
IC50 (H (chondrosarcoma); read-out: IC50 Mean, ATP depletion, 48 hrs): 635 µM
IC50 [7]: ≥ 273 µM
